From the NIST ThermoML archive (doi:10.1016/j.jct.2009.10.003)
Numbers after ± are expanded uncertainties.

Experiments:
[1] = molar heat capacity at constant pressure; conditions: 298.15 K; 101.33 kPa; Liquid; Small sample (50 mg) DSC
[2] = Crystal; DTA
[3] = Molar enthalpy of transition or fusion; conditions: Crystal; DSC

SMILES	molar heat capacity at constant pressure [1] [J/K/mol]	Normal melting temperature [2] [°C]	Molar enthalpy of transition or fusion [3] [kcal/mol]
NS(=O)(=O)c1ccc([N+](=O)[O-])cc1 [4-nitrobenzenesulfonamide]	219.98 ± 13	180.46 ± 0.39	7.12 ± 0.155
NS(=O)(=O)c1cccc([N+](=O)[O-])c1 [3-nitrobenzenesulfonamide]	199.96 ± 8.5	164.00 ± 0.39	7.52 ± 0.177
NS(=O)(=O)c1ccccc1[N+](=O)[O-] [2-nitrobenzenesulfonamide]	179.54 ± 8.5	189.92 ± 0.39	6.77 ± 0.155
